The subject of this test is bone resorption (pit formation) by bone cell containing osteoclasts. As to the kind of experiment: Pit formation assay (bone resorption inhibiting activity; absorption cavities on ivory pieces). Format: cell-based, ICR mice. Conditions: for No. of pits (Mean ± SD): control 328.0 ± 51.0; for IC50 / inhibition at 10 µM / inhibition at 1 µM / inhibition at 0.1 µM / inhibition at 0.01 µM / inhibition at 0.001 µM / inhibition at 0.0001 µM / inhibition at 10 pM: Mus musculus, Osteoclast; for IC50: read-out: 50% inhibitory (ID50) value. As to the method:
From 10 to 11-day old ICR mice (purchased from Charles River Inc.) were extracted femur and shank, which were then chopped using scissors in a-MEM medium (purchased from Flow Laboratories Inc.) containing 5% FBS (purchased from Irving Scientific Inc.), 100 U/ml penicillin and 100 μg/ml streptomycin. And further, the resulting supernatant was recovered by pipetting, washed with the medium and then suspended in 5% FBS, a-MEM medium to form bone cell containing osteoclasts. The bone cell suspension thus prepared was incubated in the medium containing rat parathyroid hormone for one week. After completion of the incubation, the cells were recovered using 0.05% trypsin EDTA-PBS and applied to pit formation assay.
An ivory piece was cut to a thickness of 150 μm using a precision low speed cutter (purchased from Buehler GmbH) and then round pieces with a diameter of 6 mm were cut out using a one-hole punch. These ivory pieces were immersed in 70% ethanol, subjected to sonication twice for each 5 minutes and then washed three times with sterile PBS and twice with the medium. These ivory pieces were placed in a 96-well culture plate (purchased from Falcon Inc.) and 100 µl of the medium containing medicaments at various concentrations was added. Then, 100 μl of the media containing the above prepared bone cells 1×10^5 was added to each well. Incubation was carried out at 37° C. in a 10% CO2 incubator for 2 days. After completion of the incubation, the cell over the ivory piece was removed, absorption cavities were stained with Coomassie Brilliant Blue and the number of the absorption cavities thus formed was counted under microscope.
Organosynthetic humulone was prepared according to Obara, H. et al., Bull. Chem. Soc. Jpn., vol.62, p.3034-3035 (1989). Bone resorption inhibiting activities of the organosynthetic humulone thus obtained and α acids obtained in example 1 were determined by means of the assay as described in (2) of example 2.
Bone resorption inhibiting activities of the native humulone thus obtained in Example 4 and the organosynthetic humulone thus obtained in Example 3 were determined by means of the assay as described in (2) of example 2.

Like-named read-outs stand apart in the source and are kept apart here.

The results in this text go back to US5604263A, “Treating osteoporosis with humulones” (Hoechst Japan Limited, priority 1994, dated 1997).

In the case of `CC(C)=CCC1=C(O)C(C(=O)CC(C)C)=C(O)C(O)(CC=C(C)C)C1=O` (single isomer, unassigned) [Native humulone, humulone], for the setting “Example 5, dose 10^-5 M”, the “No. of pits (Mean ± SD)” value is given as 0.3 ± 0.5 and the inhibition at 10 µM came out at 99.9%. Further, under “Example 5, dose 10^-6 M”, the “No. of pits (Mean ± SD)” value was 6.5 ± 3.8 and the inhibition at 1 µM came out at 98%. For the same compound, under “Example 5, dose 10^-7 M”, the “No. of pits (Mean ± SD)” value is given as 34.5 ± 7.4 and the inhibition at 0.1 µM came to 89.5%. Besides, under “Example 5, dose 10^-8 M”, the “No. of pits (Mean ± SD)” value was 128.5 ± 23.1 and the inhibition at 0.01 µM amounted to 60.8%. In addition, under “Example 5, dose 10^-9 M”, the “No. of pits (Mean ± SD)” value was 251.5 ± 135.4 and the inhibition at 0.001 µM came out at 23.3%. Further, under “Example 5, dose 10^-10 M”, the “No. of pits (Mean ± SD)” value stood at 274.3 ± 54.9 and 0.0001 µM produced 16.4% inhibition. For the same compound, where the note is “Example 5, dose 10^-11 M”, the “No. of pits (Mean ± SD)” value is recorded as 274.3 ± 91.6 and the inhibition at 10 pM was determined as 16.4%. For the same compound, the IC50 (Example 5) stood at 5.9 nM.
`CC(C)=CCC1C(=O)C(C(=O)CC(C)C)=C(O)C(O)(CC=C(C)C)C1=O` (stereo not shown) [Organosynthetic humulone, humulone]: for the setting “Example 5, dose 10^-5 M”, the “No. of pits (Mean ± SD)” value came out at 6.8 ± 5.3 and testing at 10 µM gave an inhibition of 97.9%. Where the note is “Example 5, dose 10^-6 M”, the “No. of pits (Mean ± SD)” value is listed as 33.7 ± 20.2 and the inhibition at 1 µM was 89.7%. For the setting “Example 5, dose 10^-7 M”, the “No. of pits (Mean ± SD)” value amounted to 70.7 ± 9.3 and the inhibition at 0.1 µM was found to be 78.4%. Besides, for the setting “Example 5, dose 10^-8 M”, the “No. of pits (Mean ± SD)” value was found to be 217.0 ± 89.1 and 0.01 µM produced 33.8% inhibition. For the same compound, where the note is “Example 5, dose 10^-9 M”, the “No. of pits (Mean ± SD)” value was 221.8 ± 88.3 and the inhibition at 0.001 µM was 32.4%. Moreover, for the setting “Example 5, dose 10^-10 M”, the “No. of pits (Mean ± SD)” value came out at 221.3 ± 54.1 and the inhibition at 0.0001 µM was found to be 32.5%. Moreover, where the note is “Example 5, dose 10^-11 M”, the “No. of pits (Mean ± SD)” value is 281.3 ± 38.1 and the inhibition at 10 pM is 14.2%. The IC50 (Example 3, organosynthetic humulone and α acids of example 1) amounted to 130 nM. For the same compound, for the setting “Example 5”, the IC50 worked out at 26 nM.
